Data as given in US8313920B2, “High-throughput assay for evaluating dipeptidyl peptidase I activity” (Janssen Research & Development, LLC, priority 2008, dated 2012).
Residues, ends and D or L forms follow the SMILES beside them. No end group written: not given here. *: point of attachment. AMC = Cc1cc(=O)oc2cc(N*)ccc12

Experiments:
Assay type in all cases: biochemical
[1] = molecular target: T1, dipeptidyl peptidase I (DPPI) (Homo sapiens, UniProt P53634); assay: Initial velocity analysis of DPPI with the dipeptide substrate Gly-Arg-AMC, fluorescence; conditions: dipeptide GR-AMC as DPPI substrate, about 0.4 nM DPPI, pH 7.0
T1 construct: made in house; host or cells: Hi5 insect cells (baculovirus)
Protocol: (§1) FIG. 1. Initial velocity analysis for DPP1 kinetic constant in reaction with a 20-mer substrate (A) and a dipeptide substrate (B). (A) About 2 nM of DPPI was used in the reaction with the 20-mer substrate of […] (SEQ ID NO:1) and the reaction was monitored using a mass spectrometry system. (B) About 0.4 nM of DPP1 was used in the reaction with the dipeptide substrate of GR-α-methylcoumarin and the reaction was monitored using a rate-based format monitoring fluorescence at EM=460 nm and EX=380 nm. Initial rates are taken from kinetic data where less than 7% substrate turnover was achieved.
(§2) Once the rate of the substrate turnover under the initial velocity condition, the kinetic constants for DPPI and the peptide substrate are calculated using the following formula (I): Y=VMAX((X+Et+KM)−((((Et+X+KM)^2)−(4XEt))^0.5))/(2Et) wherein • Y is concentration of substrate turnover • X is substrate concentration • Et is DPPI concentration • KM is substrate concentration at ½ VMAX • VMAX is substrate turnover at substrate saturation
The DPPI activity was analyzed with either the dipeptide substrate, Gly-Arg, labeled with alpha-methylcoumarin (AMC), or the 20-mer peptide substrate of SEQ ID NO: 1. For the dipeptide substrate, about 0.4 nM of DPPI was incubated with about 1, 2, 5, 10, 25, 50, 100, 150, 300, 600 μM of the dipeptide substrate in 10 ul of reaction buffer of 50 mM Hepes (pH 7.0), 100 mM NaCl, 0.005% Tween-20, and 2 mM of DTT or GSH. The fluorescence (Ex=380 nm, EM=460 nm) was monitored continuously from about 0 to 10 mins, using a Safire II (Tecan, Switzerland) to determine the DPPI activity. The condition for the 20-mer peptide substrate was the same as described above.

[2] = molecular target: T1, dipeptidyl peptidase I (DPPI); assay: Initial velocity analysis of DPPI with the 20-mer substrate, mass spectrometry; conditions: 20-mer as DPPI substrate, about 2 nM DPPI, pH 7.0, about 27° C.
Protocol: as §1, §2
About 2 nM of DPPI was incubated with about 0.5, 1, 2, 4, 8, 16, 32, 64, 90, 128, 150 μM of the 20-mer substrate in the reaction buffer of 50 mM HEPES (pH 7.0), 100 mM NaCl, 0.005% Tween-20, and 2 mM of DTT or GSH. […]

[3] = molecular target: T1, dipeptidyl peptidase I (DPPI); assay: DPPI assay with label-free 20-mer peptide substrate, mass spectrometry (RapidFire, SIM), screening of test compounds; conditions: for IC50: 20-mer peptide substrate (SEQ ID NO:1) 20 μM, about 2 nM DPPI, 27° C., 60 min, semi-log plot analysis, read-out: IC50 of DPPI inhibition; for effect on DPPI activity in the reaction with the 20-mer substrate: 20-mer peptide substrate, mass spectrometry
Protocol: (§3) FIG. 2. Evaluating the DPPI-modulating activity with two test compounds using a dipeptide substrate (A) and using a 20-mer peptide substrate (B). (A) About 0.4 nM of DPP1 and about 10 μM of dipeptide substrate GR-α-methylcoumarin were used in a rate-based format and monitored with fluorescence at EM=460 nm and EX=380 nm. (B) About 2 nM of DPPI and 20 μM of the 20-mer peptide substrate […] (SEQ ID NO:1) were used in a reaction and monitored with a mass spectrometry system. 2-(piperidin-1-ylcarbonyl)phenol is represented by solid squares and 2-(piperidin-1-ylcarbonyl)aniline is represented by solid circles. R^2-values is >0.95.
When a candidate compound is identified, the IC50 of the DPPI inhibition by the candidate compound is calculated using the formula (II):
[formula] wherein • Si is net substrate turnover signal of sample • So is net substrate turnover signal of positive control • Smin is net am signal of negative control • I is concentration of a candidate compound wherein a positive control is a reaction without any test compound and a negative control is a reaction without DPPI or substrate.
About 2 nM of DPPI was incubated with about 0.5, 1, 2, 4, 8, 16, 32, 64, 90, 128, 150 μM of the 20-mer substrate in the reaction buffer of 50 mM HEPES (pH 7.0), 100 mM NaCl, 0.005% Tween-20, and 2 mM of DTT or GSH. The reaction was incubated at about 27° C. and terminated with about 1/10 volume of 2% trifluoroacetic acid at multiple time points at 0, 2, 5, 10, 20, 30, 45, 60, 75, 90, and 120 mins. An aliquot of about 10 μl of the quenched reaction was used for detecting the substrate turnover by RapidFire (BioTrove, Woburn, Mass.) with a C4 cartridge. The reaction was loaded onto the cartridge, which was equilibrated with the stationary phase of 0.1% formic acid+0.02% TFA and developed with the mobile phase of 90% MeCN+0.1% formic acid+0.02% TFA at about 1 ml per min. The 20-mer substrate at SIM 1112 amu (atomic mass unit) and the corresponding 18-mer product at SIM 1019 were monitored using Agilent 1100 series LCMSD (Santa Clara, Calif.) in the positive ion mode monitoring.
Two fragment compounds, 2-(piperidin-1-ylcarbonyl)phenol and 2-(piperidin-1-ylcarbonyl)aniline were evaluated for their activity to modulate DPPI. A dilution series of the compounds of about 0.1 mM to about 100 mM was made in 100% DMSO. About one μl of a test compound and about 8 μl of about 3.75 nM DDP-1 were added to a 384-well polypropylene plate (Greiner Bio-One North America Inc., Monroe, N.C.). The proteolytic reaction was initiated by the addition of about 1 μl of 200 μM substrate. […] An aliquot of about 10 μl of the quenched reaction was analyzed by RapidFire™ as described in Examples 3 and 4.

[4] = molecular target: T1, dipeptidyl peptidase I (DPPI); assay: Rate-based DPPI assay with dipeptide substrate GR-alpha-methylcoumarin, fluorescence, test compounds; conditions: dipeptide substrate GR-α-methylcoumarin about 10 μM, about 0.4 nM DPPI, compound up to 10 mM
Protocol: as §3
The DPPI activity was analyzed with either the dipeptide substrate, Gly-Arg, labeled with alpha-methylcoumarin (AMC), or the 20-mer peptide substrate of SEQ ID NO: 1. […] The fluorescence (Ex=380 nm, EM=460 nm) was monitored continuously from about 0 to 10 mins, using a Safire II (Tecan, Switzerland) to determine the DPPI activity. […]
Two fragment compounds, 2-(piperidin-1-ylcarbonyl)phenol and 2-(piperidin-1-ylcarbonyl)aniline were evaluated for their activity to modulate DPPI. […] An aliquot of about 10 μl of the quenched reaction was analyzed by RapidFire™ as described in Examples 3 and 4.

T1 sequence (P53634 25-134 limits assumed, species assumed): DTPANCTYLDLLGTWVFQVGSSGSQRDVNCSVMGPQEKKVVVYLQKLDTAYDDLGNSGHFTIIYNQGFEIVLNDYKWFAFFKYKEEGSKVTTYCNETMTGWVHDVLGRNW
T1 sequence (P53634 231-394 limits assumed, species assumed): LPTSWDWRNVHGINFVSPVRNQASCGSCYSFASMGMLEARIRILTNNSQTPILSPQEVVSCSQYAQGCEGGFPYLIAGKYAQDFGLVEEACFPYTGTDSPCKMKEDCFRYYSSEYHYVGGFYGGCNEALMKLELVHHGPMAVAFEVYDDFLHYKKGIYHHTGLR
T1 sequence (P53634 395-463 limits assumed, species assumed): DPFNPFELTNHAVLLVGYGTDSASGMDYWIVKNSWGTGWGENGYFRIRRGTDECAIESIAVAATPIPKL

For `Cc1cc(=O)oc2cc(NC(=O)[C@H](CCCNC(=N)N)NC(=O)CN)ccc12` [Dipeptide, Gly-Arg, labeled with alpha-methylcoumarin (AMC)] (H-Gly-Arg-{AMC}), the “2nd order rate constant” value [1] was 1.48e+06 M⁻¹ s⁻¹, the Km [1] was 64 µM and the kcat [1] was 5667 Mmin^−1.

Compound GEIIGGTECKPHSRPYMAYL [20-mer] has a Km [2] of 62 µM.

In the case of `O=C(c1ccccc1O)N1CCCCC1` [2-(piperidin-1-ylcarbonyl)phenol], the IC50 [3] is reported as roughly 100 µM, the “effect on DPPI activity in the reaction with the 20-mer substrate” value [3] is reported as “modulated the DPPI activity in a concentration dependent manner” and the “effect on DPPI activity in the reaction with the dipeptide substrate” value [4] is reported as “neither compound, even in high concentration of 10 mM, affected the DPPI activity”.

With `Nc1ccccc1C(=O)N1CCCCC1` [2-(piperidin-1-ylcarbonyl)aniline] the IC50 [3] was roughly 1000 µM, the “effect on DPPI activity in the reaction with the 20-mer substrate” value [3] was “modulated the DPPI activity in a concentration dependent manner” and the “effect on DPPI activity in the reaction with the dipeptide substrate” value [4] was “neither compound, even in high concentration of 10 mM, affected the DPPI activity”.
